Experiment [1] concerns SNU5 cells. Briefly: SNU5 xenograft tumor model in CB.17-SCID mice. The following applies: intravenous, 4 weeks; antibodies 1 mg/kg once a week, Irinotecan 10 mg/kg twice a week; initial size 100 mm^3. In kind it is in vivo. The protocol:
SNU5 cells (ATCC) were injected into dorsal subcutis of 5-6 week old CB.17-SCID mice (Shanghai SLAC Laboratory Animal Co. Ltd.) at the amount of 3×10^6 cell/mouse, to prepare tumor models. When the tumor volume reaches 100 mm^3, 1 mg/kg of L3-1Y-IgG2 and 1 mg/kg of anti-c-Met/anti-EGFR bispecific antibody ME22S were intravenously administered alone or in combination once a week for 4 weeks in total. A group where PBS is intravenously administered thereto was used as a negative control, and a group where 10 mg/kg of an anticancer drug, Irinotecan (Pfizer Inc.), was intravenously administered thereto twice a week for 4 weeks in total, was used as a positive control. The tumor size (length×breadth×height) was measured twice each week, and at the last week, the mice were autopsied.

Experiment [2] concerns the target c-Met (Homo sapiens, UniProt P08581). As to the kind of experiment: Specificity of expressed scFv of huAbF46. The experiment is classed as binding. On the set-up: endogenous in cells; host or cells: SNU638 (A8, A11); MKN45 (A11). Particulars: after expression. The source says: For use in constructing an scFv of the huAbF46 antibody from the heavy and light chain variable regions of the huAbF46 antibody, a gene was designed to have the structure of “VH-linker-VL” for each of the heavy and the light chain variable region, with the linker including the amino acid sequence “[…]” (SEQ ID NO: 54). A polynucleotide sequence (SEQ ID NO: 55) encoding the designed scFv of huAbF46 was synthesized in Bioneer and an expression vector for the polynucleotide had the nucleotide sequence of SEQ ID NO: 56.

Chain of c-Met (P08581 25-1390): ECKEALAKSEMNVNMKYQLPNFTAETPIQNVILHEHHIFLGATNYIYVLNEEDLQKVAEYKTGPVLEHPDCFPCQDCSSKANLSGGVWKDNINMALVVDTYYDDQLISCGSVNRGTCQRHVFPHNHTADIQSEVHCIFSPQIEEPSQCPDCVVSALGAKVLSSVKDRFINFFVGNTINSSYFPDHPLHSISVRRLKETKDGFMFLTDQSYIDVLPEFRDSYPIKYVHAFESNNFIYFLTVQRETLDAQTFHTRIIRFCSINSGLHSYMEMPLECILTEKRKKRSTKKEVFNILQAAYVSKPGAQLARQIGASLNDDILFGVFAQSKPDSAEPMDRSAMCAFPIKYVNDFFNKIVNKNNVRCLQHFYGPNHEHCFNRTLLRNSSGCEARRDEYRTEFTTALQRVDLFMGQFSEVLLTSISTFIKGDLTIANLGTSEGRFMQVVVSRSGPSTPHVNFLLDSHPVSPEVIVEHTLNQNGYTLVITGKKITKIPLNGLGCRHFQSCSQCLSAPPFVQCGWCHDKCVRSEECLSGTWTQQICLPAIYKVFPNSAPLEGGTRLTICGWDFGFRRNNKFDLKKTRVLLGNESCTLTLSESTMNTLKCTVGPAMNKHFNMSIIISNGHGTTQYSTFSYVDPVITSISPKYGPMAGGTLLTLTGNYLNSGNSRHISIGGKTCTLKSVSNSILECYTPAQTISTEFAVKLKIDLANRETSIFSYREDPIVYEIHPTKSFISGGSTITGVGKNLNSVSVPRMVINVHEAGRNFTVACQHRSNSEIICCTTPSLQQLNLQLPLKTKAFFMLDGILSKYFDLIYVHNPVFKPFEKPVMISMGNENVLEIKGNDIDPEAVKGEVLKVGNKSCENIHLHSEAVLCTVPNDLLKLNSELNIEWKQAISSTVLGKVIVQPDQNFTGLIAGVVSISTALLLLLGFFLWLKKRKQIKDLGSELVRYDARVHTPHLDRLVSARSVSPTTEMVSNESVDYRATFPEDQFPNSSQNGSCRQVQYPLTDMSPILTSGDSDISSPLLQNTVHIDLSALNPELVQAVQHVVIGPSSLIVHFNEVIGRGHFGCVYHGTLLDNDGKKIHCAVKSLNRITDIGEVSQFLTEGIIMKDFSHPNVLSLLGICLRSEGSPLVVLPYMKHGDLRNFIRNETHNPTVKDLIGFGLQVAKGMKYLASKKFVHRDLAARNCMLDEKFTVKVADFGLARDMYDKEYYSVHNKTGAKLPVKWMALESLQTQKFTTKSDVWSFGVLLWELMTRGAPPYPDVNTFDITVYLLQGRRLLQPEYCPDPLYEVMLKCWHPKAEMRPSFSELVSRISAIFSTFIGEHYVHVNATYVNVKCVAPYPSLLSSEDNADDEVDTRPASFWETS

For the molecule `CCc1c2c(nc3ccc(OC(=O)N4CCC(N5CCCCC5)CC4)cc13)-c1cc3c(c(=O)n1C2)COC(=O)[C@]3(O)CC` [Irinotecan, reference compound], the final tumor size result in experiment [1] is “about 72 mm^3”.

B1: scFv of huAbF46: scFv of huAbF46, structure VH-linker-VL with linker SEQ ID NO: 54 (protein)
scFv: EVQLVESGGGLVQPGGSLRLSCAASGFTFTDYYMSWVRQAPGKGLEWLGFIRNKANGYTTEYSASVKGRFTISRDNSKNTLYLQMNSLRAEDTAVYYCARDNWFAYWGQGTLVTVSSGLGGLGGGGSGGGGSGGSSGVGSDIQMTQSPSSLSASVGDRVTITCKSSQSLLASGNQNNYLAWHQQKPGKAPKMLIIWASTRVSGVPSRFSGSGSGTDFTLTISSLQPEDFATYYCQQSYSAPLTFGQGTKVEIKR
Consider B1, for which, in experiment [2], the “specificity to c-Met” value is given as “exhibit specificity to c-Met”.

Source of the values: US9902776B2, “Anti-EGFR antibody and anti-c-Met/anti-EGFR bispecific antibodies comprising the same” (Samsung Electronics Co., Ltd., priority 2013, dated 2018).
